Publication PMC5847527, “Identification of a novel 2-oxindole fluorinated derivative as in vivo antitumor agent for prostate cancer acting via AMPK activation” (Scientific Reports, 2018)

How the values were obtained:
PC-3 cells = experiment: Cell cycle analysis by flow cytometry (Propidium Iodide), PC-3; assay type: cell-based, human; settings: PC-3, 24 h, 25 μM and 50 μM tested (concentration of this value not stated)
Description: For that, we treated PC-3 and LNCaP cells with 25 μM and 50 μM of compound 8c for 24 h and performed cell cycle analysis by flow cytometry using Propidium Iodide (PI). […] It is worthy to note that when PC-3 cells were treated with compound 8c, 80% of cells were in subG0 phase (Fig. 4A).
Figure 4 Cell Cycle analysis in 8c-treated prostate cancer cells. (A) PC-3 and LNCaP cells were treated with compound 8c for 24 hours and cell cycle analysis was analyzed by flow cytometry using Propidium Iodide (PI). Percentage of cells in subG0, G1, S, and G2/M phases is indicated in the histogram. (B) Levels of Cyclin D1, p-p53, p53, p21 and cleaved Caspase 3 (17 kDa fragment) were determined by Western blot. Upper panel, representative Western blot of two different experiments. β-tubulin (β-Tub) serves as a loading control. Lower panel, the densitometric analyses of bands represented as the mean ± SD of the two different experiments. *p < 0.05 and **p < 0.01 compared with the control group by the Student’s t-test.
Flow cytometry was used to detect the distribution of cell cycle. After being cultivated with the treatment, 10^5 cells in 35 mm culture dish were harvested in 0.35% trypsin, collected and fixed with 70% cold ethanol at 4 °C for 1 h. Then, cells were centrifuged at 1500 g for 5 min and incubated in 0.5 ml PBS containing 0.1 mg/ml RNase for 30 min at 37 °C. […]

[1] = molecular target: T1, human recombinant AMPK isoform α1β1γ1 (Homo sapiens, UniProt P54619+Q13131+Q9Y478); experiment: In vitro AMPK enzymatic assay (AMARA peptide, Delfia), α1β1γ1; assay type: biochemical; settings: 30 μM, p < 0.001
T1 construct: purchased Invitrogen
Description: This assay evaluated the ability of the compound to activate AMPK and in turn phosphorylate the synthetic substrate peptide [sequence].
Data are the mean ± S.D. of four experiments. **p < 0.01 and ***p < 0.001 compared by the Student’s t-test.
The effect of compounds in the in vitro human recombinant AMPK activity assay was measured by monitoring phosphorylation of the “AMARA” peptide using Delfia technology. […] Final concentration of DMSO was 1%. Reactions were initiated by the addition of AMPK (0.1U). Following mixing, the plates were incubated for 30 min at room temperature. Enzyme activity was assayed by using an anti-phospho-serine antibody to measure the quantity of phosphate incorporated into the AMARAA peptide.

PC-3 and LNCaP cells = experiment: MTT cell viability in PC-3 and LNCaP cells under AMPK inhibition or knocking down; assay type: cell-based, human; settings: α1AMPK-selective siRNA
Description: Figure 5 AMPK activation by compound 8c in prostate cancer cells. (A) PC-3 and LNCaP cells were treated with vehicle, 25 µM compound 8c, 25 µM compound 8c + 5 μM Dorsomorphin (8c + D) or 5 μM Dorsomorphin (D), for 1 hour or 24 hours and levels of the phosphorylated AMPK (pAMPK), phosphorylated ACC (pACC), phosphorylated Raptor (pRaptor) forms and HIF1α were determined by Western blot. Upper panel, representative Western blot of three different experiments. β-tubulin (β-Tub) serves as a loading control. Lower panel, densitometric analyses of bands represented as the mean of the ratio pAMPK/AMPK or pACC/ACC. (B) Cell viability monitored by MTT assay in PC-3 and LNCaP cells treated with vehicle, 25 µM and 50 μM compound 8c alone or in the presence of 5 μM Dorsomorphin or transfected with control siRNA (siC) or α1AMPK-selective siRNA (siAMPK). (C) LNCaP cells were treated with vehicle, 25 µM compound 8c, 25 µM compound 8c + 5 μM Dorsomorphin (8c + D) or 5 μM Dorsomorphin (D), for 24 hours and levels of Androgen Receptor (AR), Prostate specific antigen (PSA) and Prostate specific membrane antigen (PSMA) were determined by Western blot.Values were normalized with the control and represent the mean ± SD of at least three independent experiments. *p < 0.05 and **p < 0.01 compared to control and ^#p < 0.05 and ^##p < 0.01 compared with 8c-treated group by the Student’s t-test. […]

T1 sequence (Q13131 whole entry, canonical isoform): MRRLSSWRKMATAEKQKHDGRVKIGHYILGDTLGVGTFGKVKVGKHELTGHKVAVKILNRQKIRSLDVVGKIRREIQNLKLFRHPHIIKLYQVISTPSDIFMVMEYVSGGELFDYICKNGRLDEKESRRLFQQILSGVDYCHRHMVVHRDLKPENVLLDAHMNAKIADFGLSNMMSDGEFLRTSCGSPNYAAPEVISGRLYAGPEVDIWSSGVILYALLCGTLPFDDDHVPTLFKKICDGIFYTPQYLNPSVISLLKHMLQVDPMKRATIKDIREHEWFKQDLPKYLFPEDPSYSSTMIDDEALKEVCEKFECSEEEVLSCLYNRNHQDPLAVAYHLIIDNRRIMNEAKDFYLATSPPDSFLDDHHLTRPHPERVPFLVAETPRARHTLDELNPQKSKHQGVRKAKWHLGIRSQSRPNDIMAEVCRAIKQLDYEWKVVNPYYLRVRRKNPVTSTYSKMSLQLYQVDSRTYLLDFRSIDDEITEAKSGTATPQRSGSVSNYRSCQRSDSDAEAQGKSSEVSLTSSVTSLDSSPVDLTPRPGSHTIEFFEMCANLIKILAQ
T1 sequence (Q9Y478 whole entry, canonical isoform): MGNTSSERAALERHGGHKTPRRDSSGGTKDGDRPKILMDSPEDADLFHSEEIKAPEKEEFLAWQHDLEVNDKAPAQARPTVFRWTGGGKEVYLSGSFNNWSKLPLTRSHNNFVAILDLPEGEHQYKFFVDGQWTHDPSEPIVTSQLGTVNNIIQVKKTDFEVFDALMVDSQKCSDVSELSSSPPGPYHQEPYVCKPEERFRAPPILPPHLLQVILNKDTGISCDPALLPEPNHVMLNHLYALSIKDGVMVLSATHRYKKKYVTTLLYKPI
T1 sequence (P54619 whole entry, canonical isoform): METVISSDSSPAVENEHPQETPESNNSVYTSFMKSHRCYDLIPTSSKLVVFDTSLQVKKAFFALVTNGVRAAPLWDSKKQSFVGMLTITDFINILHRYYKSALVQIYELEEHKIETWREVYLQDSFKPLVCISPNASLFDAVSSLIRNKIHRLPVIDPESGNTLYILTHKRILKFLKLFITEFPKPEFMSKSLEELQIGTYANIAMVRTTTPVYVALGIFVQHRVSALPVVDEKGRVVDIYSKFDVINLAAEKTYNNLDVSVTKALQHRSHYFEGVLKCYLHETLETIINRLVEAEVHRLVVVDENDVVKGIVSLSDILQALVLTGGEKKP

## O=C1Nc2ccccc2C1(F)Cc1ccc(-c2ccccc2)o1 (stereo not drawn) [Compound 8c, 3-fluoro-3-((5-phenylfuran-2-yl)methyl)indolin-2-one]
PC-3 cells
  cells in subG0 phase: 80%
[1]
  increase of AMPK α1β1γ1 activity: 75%
PC-3 and LNCaP cells
  cell death with AMPK silencing by specific siRNA: prevented 8c-induced cell death
